The text below walks through data of ChEMBL document CHEMBL1201862, “PubChem BioAssay data set” (2004).

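In this assay, cells in 96-well plates receive the compound at five concentrations for 48 hours. Endpoints are linearly interpolated between the surrounding concentrations. GI50 = concentration required for 50% inhibition of growth.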 Calls of active or inactive are those of the source. No stated cut-off is given here; in the data, active = GI50 up to about 1.1 µM and inactive = higher. Some results are limits rather than exact numbers.

Some test systems named below: A549; BT-549; HCT-116; HCT-15; HL-60; HOP-62; HOP-92; HT-29; LOX IMVI; PC-3; SF-268; SK-MEL-28; SK-MEL-2; SK-MEL-5; SN12C; SNB-19; SW-620; U-251; NCI-H226; SNB-75.
Assay in all cases: NCI anticancer screen, dose series, 48 h

In the case of `CC(=O)NC1C(Sc2ncn(C3OC(CO)C(O)C(O)C3NC(C)=O)n2)OC(CO)C(O)C1O` (centres undefined), the GI50 with A549 was > 100 µM (inactive); with BT-549, > 100 µM (inactive); in the test on HCT-116, > 100 µM (inactive); in the test with HCT-15 it was greater than 100 µM; with HL-60, > 100 µM (inactive); with HOP-62 it was > 100 µM (inactive). For the same molecule, the GI50 in the test with HOP-92, with HT-29, in the test with LOX IMVI, in the test on PC-3, with SF-268 and in the test with SK-MEL-28 was > 100 µM (inactive) in each case. Further, the GI50 in the test with SK-MEL-2, in the test with SK-MEL-5, with SN12C, in the test with SNB-19, in the test with SW-620 and in the test with U-251 was > 100 µM (inactive) throughout.
In the case of `C[P+](c1ccccc1)(c1ccc(Cl)cc1)c1ccc(Cl)cc1`, the GI50 is 32.4 µM (inactive) in the test with A549; 21.3 µM (inactive) with BT-549; 6.93 µM (inactive) in the test with HCT-116; 88.9 µM with HCT-15; 19.5 µM (inactive) in the test with HOP-62; 10.3 µM (inactive) in the test on HOP-92. The GI50 in the test with HT-29 is 4.44 µM (inactive); in the test on LOX IMVI it was 11.1 µM (inactive); in the test with NCI-H226, 24.3 µM (inactive); with PC-3, 20.2 µM (inactive); with SF-268, 38.6 µM (inactive); with SK-MEL-28, 10 µM (inactive). Also, the GI50 was 19.9 µM (inactive) in the test on SK-MEL-2; 2.84 µM (inactive) in the test on SK-MEL-5; 15.6 µM (inactive) with SN12C; 13 µM (inactive) in the test with SNB-19; 14.4 µM (inactive) with SNB-75; 18.5 µM (inactive) with SW-620. For the same molecule, in the test on U-251, the GI50 is 16.3 µM (inactive).
`c1ccc(-c2nc3ccccc3n3c(CN4CCCCC4)nnc23)cc1`: the GI50 in the test with A549 was > 100 µM (inactive); in the test with BT-549 it was 80.2 µM (inactive); in the test on HCT-116 it was > 100 µM (inactive); in the test on HCT-15 it was greater than 100 µM; in the test with HOP-62, 28.5 µM (inactive); in the test with HOP-92, 31.2 µM (inactive). Moreover, the GI50 with HT-29 was > 100 µM (inactive); in the test with LOX IMVI, > 100 µM (inactive); in the test on NCI-H226, > 100 µM (inactive); with PC-3 it was > 100 µM (inactive); with SF-268, 49.5 µM (inactive); with SK-MEL-28, > 100 µM (inactive). In addition, the GI50 with SK-MEL-2 was 35.1 µM (inactive); with SK-MEL-5, > 100 µM (inactive); with SN12C it was > 100 µM (inactive); with SNB-19, 36.2 µM (inactive); in the test on SNB-75, 19.2 µM (inactive); in the test with SW-620 it was > 100 µM (inactive). Further, the GI50 in the test with U-251 is 47 µM (inactive).
Consider `CC(=O)OC[C@H]1O[C@@H](O[C@H]2[C@H](OC(C)=O)C=CO[C@@H]2COC(C)=O)C(OC(C)=O)[C@H]2OC(C)(C)O[C@H]21` (some centres undefined), for which the GI50 is > 100 µM (inactive) in the test with A549; 36.6 µM (inactive) in the test on BT-549; > 100 µM (inactive) in the test with HCT-116; greater than 100 µM in the test on HCT-15; > 100 µM (inactive) with HOP-62; 52.8 µM (inactive) in the test with HOP-92. Also, the GI50 in the test with HT-29, in the test with LOX IMVI, in the test on NCI-H226, with PC-3, with SF-268 and with SK-MEL-28 was > 100 µM (inactive) in each case. In addition, the GI50 is 58.9 µM (inactive) in the test on SK-MEL-5; > 100 µM (inactive) in the test on SN12C; > 100 µM (inactive) in the test on SNB-19; 30.5 µM (inactive) with SNB-75; 64.3 µM (inactive) in the test with SW-620; > 100 µM (inactive) in the test on U-251.
On to `O=[N+]([O-])c1ccc2c(c1)C1=C(CO2)Cc2ccccc2O1`, for which the GI50 in the test on A549 was 42.4 µM (inactive); in the test with BT-549 it was 28.8 µM (inactive); in the test with HCT-116 it was 16.3 µM (inactive); with HCT-15, 14.3 µM; with HOP-62, 64.6 µM (inactive); with HOP-92 it was 23.9 µM (inactive). Further, the GI50 in the test on HT-29 is 26.2 µM (inactive); with LOX IMVI it was 14.8 µM (inactive); with NCI-H226 it was 26.2 µM (inactive); in the test on PC-3, 19.1 µM (inactive); with SF-268 it was 21.3 µM (inactive); in the test with SK-MEL-2, 37.9 µM (inactive). Also, the GI50 with SK-MEL-5 was 15.8 µM (inactive); in the test with SN12C, 25.9 µM (inactive); in the test on SNB-75, > 100 µM (inactive); in the test with SW-620 it was 21.3 µM (inactive); in the test with U-251 it was 17.6 µM (inactive).
Regarding `Nn1c(CNc2ccc(-c3nnc(Nc4ccc(Cl)cc4)n3N)cc2)nnc1Nc1ccc(Cl)cc1`, the GI50 was > 100 µM (inactive) with A549; > 100 µM (inactive) in the test on BT-549; 37.1 µM (inactive) in the test with HCT-116; greater than 100 µM in the test with HCT-15; 34.1 µM (inactive) in the test with HOP-62; > 100 µM (inactive) with HOP-92. In addition, the GI50 was 44.2 µM (inactive) with HT-29; > 100 µM (inactive) in the test on NCI-H226; > 100 µM (inactive) with PC-3; > 100 µM (inactive) with SF-268; > 100 µM (inactive) in the test with SK-MEL-28; > 100 µM (inactive) with SK-MEL-2. In addition, the GI50 with SK-MEL-5, with SN12C, in the test on SNB-19, in the test on SNB-75, in the test with SW-620 and in the test with U-251 was > 100 µM (inactive) in each case.
With `CC1(C)[C@@H]2CC[C@@]1(C)CN(CCC[N+](C)(C)C)C2`, the GI50 was > 100 µM (inactive) in the test with A549; > 100 µM (inactive) in the test with BT-549; > 100 µM (inactive) in the test on HCT-116; greater than 100 µM in the test with HCT-15; > 100 µM (inactive) with HOP-62; > 100 µM (inactive) in the test on HOP-92. The GI50 with HT-29, in the test with LOX IMVI, with NCI-H226, with PC-3, with SF-268 and in the test with SK-MEL-28 was > 100 µM (inactive) in each case. The GI50 in the test with SK-MEL-2, with SK-MEL-5, in the test on SN12C, with SNB-19, with SNB-75 and in the test on SW-620 was > 100 µM (inactive) each time. Also, the GI50 with U-251 is > 100 µM (inactive).
As for `O=[N+]([O-])/C(C(Cl)=C(Cl)Cl)=C1\Nc2ccc([N+](=O)[O-])cc2N1`, the GI50 in the test on A549 was > 100 µM (inactive); with BT-549 it was 62.2 µM (inactive); in the test on HCT-116, 46.5 µM (inactive); with HCT-15, greater than 100 µM; in the test with HOP-62, > 100 µM (inactive); in the test on HOP-92, 14.3 µM (inactive). Further, the GI50 in the test with NCI-H226 was > 100 µM (inactive); with PC-3 it was > 100 µM (inactive); with SF-268, 61.8 µM (inactive); with SK-MEL-28 it was > 100 µM (inactive); in the test with SK-MEL-2, > 100 µM (inactive); with SK-MEL-5, > 100 µM (inactive). Further, the GI50 in the test on SN12C is 55.7 µM (inactive); with SNB-19, > 100 µM (inactive); with SNB-75, > 100 µM (inactive); in the test on U-251 it was 60 µM (inactive).
